Measured values published in a compilation of properties of binary mixtures (doi:10.1016/j.jtice.2014.04.012).

Assay: xn = mol fraction of the nth substance listed
Details: 100 kPa

CCCC[n+]1ccn(C)c1.F[B-](F)(F)F + CN(C)C=O
viscosity [mPa·s]
Details | x1 = 0.1008 | x1 = 0.2015 | x1 = 0.3022 | x1 = 0.4024 | x1 = 0.502 | x1 = 0.6024 | x1 = 0.7019 | x1 = 0.8015 | x1 = 0.9002 | x1 = 1
303.15 K | – | 2.598 | 4.414 | 7.178 | 11.55 | 17.99 | 26.92 | 39.91 | 58.87 | 85.4
313.15 K | 1.298 | 2.198 | 3.585 | 5.632 | 8.76 | 13.13 | 19.05 | – | 38.08 | –
323.15 K | 1.142 | 1.892 | – | 4.587 | 6.849 | 10 | – | 19.37 | 26.77 | 36.27
333.15 K | 1.012 | 1.631 | 2.53 | 3.873 | 5.565 | 7.857 | – | 14.43 | 19.11 | 25.46

CN(C)C=O + CCCC[n+]1ccn(C)c1.F[B-](F)(F)F
x2 = 0
Details | viscosity [mPa·s]
303.15 K | 0.77
313.15 K | 0.688
323.15 K | 0.619
